Columns and labels:
mGlu7 receptor [1] = target: T1, mGlu7 receptor (Homo sapiens, UniProt Q14831); assay: HTRF cAMP assay: antagonism of L-Glu (EC80) inhibition of forskolin-stimulated cAMP accumulation (NAM profile); format: cell-based; conditions: HEK 293 T-REx cells expressing mGlu7; 6.26 mM L-Glu (EC80); 5 μM forskolin; n = 3; read-out: IC50, antagonism of L-Glu inhibition of cAMP accumulation in the presence of forskolin
T1 construct: expressed in transfected cells
Experimental: (§1) A homogeneous time-resolved fluorescence (HTRF) cAMP dynamic 2 (Cisbio, Codolet, France) assay was performed as previously described ([Chruścicka et al., 2015]) with recombinant cell lines. Briefly, HEK 293 T-REx cells stably expressing mGlu7 receptor, were collected and suspended in Hanks-HEPES buffer. The cell suspension was added to compounds solution with 5 μM of forskolin (final concentration). After 5 min incubation in 37°C, 5 μl of cAMP-d2 conjugate in lysis buffer was added and mixed with the 10 μl cell suspension by means of an automated pipetting system (Tecan Evo 200, Tecan, Mannedorf, Switzerland). Next, 5 μl anti-cAMP cryptate conjugate was added and the fluorescence at 620 and 665 nm was read after 1 h (Tecan Infinite M1000). The results are shown as the 665 nm/620 nm ratio multiplied by 10^4. The detected signal was inversely proportional to the concentration of cAMP in the sample. […] Each experiment was performed three times (n = 3), and each data point was in triplicate.

mGlu7 receptor [2] = target: T1, mGlu7 receptor; assay: HTRF cAMP assay: potentiation of forskolin action without agonist (inverse agonist properties); format: cell-based; conditions: T-REx 293 cells, 5 μM forskolin, n = 3, read-out: IC50, potentiation of forskolin action (elevating cAMP concentration), inverse agonist properties
Experimental: as §1
Both compounds dose-dependently potentiated forskolin action, elevating cAMP concentration in the T-REx 293 cells (Figure 2B). […] This effect was not observed for an antagonist of mGluR7 – XAP044.

[3] = Metabolic stability (microsomes, mice); format: in vitro ADME; conditions: for microsomal CLint: mouse, liver microsomes
Cytochrome P450 3A4 = Cytochrome P450 3A4 (Homo sapiens, UniProt P08684); assay: Cytochrome P450 inhibition, 3A4; format: in vitro ADME
Cytochrome P450 3A4, sequence (P08684 whole entry, the tested form may be a part): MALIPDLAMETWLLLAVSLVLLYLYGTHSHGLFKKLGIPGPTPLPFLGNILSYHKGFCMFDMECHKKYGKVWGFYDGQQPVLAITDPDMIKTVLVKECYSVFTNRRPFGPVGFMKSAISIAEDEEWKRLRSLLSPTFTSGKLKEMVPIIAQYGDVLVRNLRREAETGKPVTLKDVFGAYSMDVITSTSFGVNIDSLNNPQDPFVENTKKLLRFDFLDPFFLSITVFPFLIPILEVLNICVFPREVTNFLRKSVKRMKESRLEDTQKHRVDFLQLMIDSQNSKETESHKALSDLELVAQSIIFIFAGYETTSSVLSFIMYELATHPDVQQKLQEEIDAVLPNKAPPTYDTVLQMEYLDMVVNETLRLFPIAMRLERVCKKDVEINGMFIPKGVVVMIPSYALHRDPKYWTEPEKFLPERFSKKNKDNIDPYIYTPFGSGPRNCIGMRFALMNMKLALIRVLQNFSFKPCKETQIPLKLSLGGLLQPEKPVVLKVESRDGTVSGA

[4] = system: field potentials in frontal cortical slices; assay: Electrophysiology: field potentials in frontal cortical slices, mGlu7 KO mice; conditions: for Before-after effect of the drug on FP amplitude: KO animals; for S (factor proportional to the slope of the curve) / Uh (stimulation intensity evoking FP of half-maximum amplitude) / Vmax (maximum FP amplitude, Boltzmann fit): slices from mGlu7 KO mice, after 20 min drug superfusion
Description: Mice (wild and KO, approx. 25 g) were housed under a controlled light/dark cycle (light on: 0700–1900) and had free access to standard food and tap water. Mice were anesthetized with isoflurane (Aerrane, Baxter) decapitated, their brains were dissected and immersed in an ice-cold artificial cerebrospinal fluid (ACSF) of the following composition (in mM): NaCl (130), KCl (5), CaCl2 (2.5), MgSO4 (1.3), KH2PO4 (1.25), NaHCO3 (26), and glucose (10), bubbled with a mixture of 95% O2/5% CO2 to pH 7.4. Frontal cortical slices (bregma 1.9–1.4, 380 μm) were cut in a coronal plane using a vibrating microtome and they were stored at 32°C. A single slice was next transferred to the recording chamber (32°C ± 0.5°C) and superfused at 2.5 ml/min with a ACSF.
A bipolar stimulating electrode (FHC) was placed approx. 2 mm lateral to the midline and approx. 1.0 mm below the pial surface (in layer V) (Figure 1). Stimuli (duration: 0.2 ms) were applied at 0.033 Hz using a constant-current stimulus isolation unit (WPI). Field potentials (FPs) were recorded using glass micropipettes filled with ACSF (1–3 MΩ), which were placed approx. 0.2 mm below the cortical surface (in layer II/III). FPs were amplified (Axoprobe 1A, Axon Instruments), A/D converted at 10 kHz and stored using Micro1401 interface and Signal 4 software (CED).
The stimulus–response curves obtained for each slice were fit with the Boltzmann equation: Vi = Vmax/(1 + exp[(u - Uh)/-S]), where Vmax is the maximum FP amplitude; u is the stimulation intensity; Uh is the stimulation intensity evoking FP of half-maximum amplitude; S is the factor proportional to the slope of the curve; “exp” is exponentiation – mathematical operation. The results are expressed as the means ± SEM. Statistical analyses were carried out using t-test ([Tokarski et al., 2011]).
For each slice, at the beginning of the experiment an input-output curve was generated in ACSF. A stimulus-response (input-output) curve was made for each slice. […] One response was recorded at each stimulation intensity. […] Statistical analyzes were carried out using paired t-test and ANOVA.

[5] = system: MK-801-induced deficits in the NOR test; assay: Novel object recognition test (MK-801-induced deficits); format: in vivo, Albino Swiss mice; conditions: 30 min before MK-801 (0.3 mg/kg), mice
Experimental: The experiment was performed according to [Nilsson et al., 2007] with minor modifications ([Woźniak et al., 2016b]). Following a 2-day habituation period (10 min/day), a training trial was performed, where mice were allowed to explore two identical objects for 5 min. About 1 h later, a test trial was conducted, where one of the familiar object was replaced by a novel object. The animals were then allowed to explore the objects for 5 min. […] Time spend exploring (i.e., sniffing or touching) the familiar (Tfamiliar) or novel object (Tnovel) was measured by a trained observer and then the recognition index was calculated for each mouse [(Tnovel - Tfamiliar)/(Tfamiliar + Tnovel)] × 100.

[6] = system: MK-801-induced increase in immobility time; assay: Modified forced swim test after chronic MK-801; format: in vivo, Albino Swiss mice; conditions: chronic (13 days) MK-801 0.4 mg/kg, mice
Experimental: The modified forced swim test was performed according to the method introduced by Noda ([Noda et al., 1995], [1997]; [Wierońska et al., 2015a]; [Woźniak et al., 2016a]). The swim tests were performed in a glass cylinder (height, 20 cm; internal diameter, 15 cm) containing 11 cm of water maintained at 23–24°C. After the acclimation period, the animals underwent the first swim test, where the immobility time was measured during a 3 min period (T1). On the next day, chronic (13 days) MK-801 administration (0.4 mg/kg, i.p.) was started. After a 1-day break, on the 15th day of experiment, the second swim session was performed and the immobility time during 3-min test was measured again (T2). The T2 - T1 difference was reported as the result of the experiment.

T1 sequence (Q14831 35-915): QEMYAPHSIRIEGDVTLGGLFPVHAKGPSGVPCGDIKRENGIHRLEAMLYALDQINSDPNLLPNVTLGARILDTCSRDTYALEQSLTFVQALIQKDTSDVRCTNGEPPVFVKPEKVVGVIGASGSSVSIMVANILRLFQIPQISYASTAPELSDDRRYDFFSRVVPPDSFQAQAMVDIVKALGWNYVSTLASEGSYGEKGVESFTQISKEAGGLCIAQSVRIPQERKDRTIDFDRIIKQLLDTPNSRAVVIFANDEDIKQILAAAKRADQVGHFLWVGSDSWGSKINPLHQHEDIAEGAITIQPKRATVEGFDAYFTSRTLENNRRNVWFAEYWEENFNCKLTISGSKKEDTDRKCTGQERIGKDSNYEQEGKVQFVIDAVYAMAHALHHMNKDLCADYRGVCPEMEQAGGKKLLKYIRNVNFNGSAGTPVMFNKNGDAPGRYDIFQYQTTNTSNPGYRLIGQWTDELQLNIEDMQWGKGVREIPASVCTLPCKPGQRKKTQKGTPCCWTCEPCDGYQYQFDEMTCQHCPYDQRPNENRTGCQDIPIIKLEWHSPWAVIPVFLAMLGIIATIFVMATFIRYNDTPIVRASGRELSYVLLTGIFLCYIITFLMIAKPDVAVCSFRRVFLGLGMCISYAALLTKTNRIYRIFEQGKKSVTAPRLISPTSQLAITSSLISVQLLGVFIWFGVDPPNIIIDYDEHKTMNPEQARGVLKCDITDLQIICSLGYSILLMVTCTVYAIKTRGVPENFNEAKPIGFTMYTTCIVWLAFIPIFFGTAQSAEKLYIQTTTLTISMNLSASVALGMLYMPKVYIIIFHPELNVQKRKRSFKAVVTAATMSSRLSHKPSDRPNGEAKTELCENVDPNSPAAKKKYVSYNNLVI

Row | Structure (SMILES) | IC50 (mGlu7 receptor [1]) [nM] | IC50 (mGlu7 receptor [2]) [nM] | Metabolic stability (microsomes, mice) [3] | microsomal CLint [3] [µL/min/mg] | IC50 (Cytochrome P450 3A4) [nM] | Before-after effect of the drug on FP amplitude [4] | S (factor proportional to the slope of the curve) [4] | Uh (stimulation intensity evoking FP of half-maximum amplitude) [4] | Vmax (maximum FP amplitude, Boltzmann fit) [4] | Effect on MK-801-induced reduction of recognition index (NOR) ([5]; 1 mg/kg i.p.) | Effect on MK-801-induced reduction of recognition index (NOR) ([5]; 5 mg/kg i.p.) | Effect on MK-801-induced reduction of recognition index (NOR) ([5]; 15 mg/kg i.p.) | Effect on MK-801-induced increase in immobility time (modified forced swim test) ([6]; 1 mg/kg i.p. acutely 30 min before T2) | Effect on MK-801-induced increase in immobility time (modified forced swim test) ([6]; 15 mg/kg i.p. acutely 30 min before T2)
1 | CCc1nc2c(o1)CC(c1ccc(C)cc1C)CC2=O (stereo not shown) [ADX71743, 6-(2,4-Dimethylphenyl)-2-ethyl-6,7-dihydro-4(5H)-benzoxazolone] | 440 | 220 | 0.01 | 500 | > 10000 | 106% | 7.12 ± 0.41 | 26.06 ± 1.18 | 2.36 ± 0.18 | significant reversal of MK-801-induced effect | significant reversal of MK-801-induced effect | significant reversal of MK-801-induced effect |  | 
2 | COc1ccc(-c2cc3onc(-c4ccncc4)c3c(=O)n2C)cc1 [MMPIP, 6-(4-Methoxyphenyl)-5-methyl-3-(4-pyridinyl)-isoxazolo(4,5-c)pyridin-4(5H)-one] | 380 | 340 | 49.78 | 38.7 |  | 100,1% | 8.6 ± 1.01 | 22.1 ± 1.4 | 2.16 ± 0.2 |  |  |  | significant reversal of MK-801-induced effect | significant reversal of MK-801-induced effect

Source: publication PMC6158327, “Negative Allosteric Modulators of mGlu7 Receptor as Putative Antipsychotic Drugs” (Frontiers in Molecular Neuroscience, 2018)
